Test results as given in ChEMBL document CHEMBL2424569, “Synthesis of halogenated derivatives of thymol and their antimicrobial activities” (2013).
Values after ≈ are worked out from the molar mass of the structure shown. Active and inactive are the calls of the source. The rule behind the calls is not given here.

Tests used:
Assay type in all cases: functional
[1] = tested on: Staphylococcus epidermidis; assay: Antibacterial activity against Staphylococcus epidermidis at MIC after 48 hrs by disc diffusion assay
Klebsiella pneumoniae [2] = assay: Antibacterial activity against Klebsiella pneumoniae by two-fold serial dilution assay
Streptococcus mutans [3] = assay: Antibacterial activity against Streptococcus mutans at MIC after 48 hrs by disc diffusion assay
Staphylococcus aureus [4] = assay: Antibacterial activity against Staphylococcus aureus at MIC after 48 hrs by disc diffusion assay
Enterococcus faecalis [5] = assay: Antibacterial activity against Enterococcus faecalis by two-fold serial dilution assay
Klebsiella aerogenes [6] = assay: Antibacterial activity against Enterobacter aerogenes by two-fold serial dilution assay
Candida albicans [7] = assay: Antifungal activity against Candida albicans MTCC at MIC after 7 to 10 days by disc diffusion assay
Escherichia coli [8] = assay: Antibacterial activity against Escherichia coli at MIC after 48 hrs by disc diffusion assay
Candida albicans [9] = assay: Antifungal activity against Candida albicans CN by two-fold serial dilution assay
Candida albicans [10] = assay: Antifungal activity against Candida albicans AI at MIC after 7 to 10 days by disc diffusion assay
Staphylococcus aureus [11] = assay: Antibacterial activity against Staphylococcus aureus by two-fold serial dilution assay
Candida albicans [12] = assay: Antifungal activity against Candida albicans MTCC by two-fold serial dilution assay
Enterococcus faecalis [13] = assay: Antibacterial activity against Enterococcus faecalis at MIC after 48 hrs by disc diffusion assay
Klebsiella aerogenes [14] = assay: Antibacterial activity against Enterobacter aerogenes at MIC after 48 hrs by disc diffusion assay
Streptococcus mutans [15] = assay: Antibacterial activity against Streptococcus mutans by two-fold serial dilution assay
Escherichia coli [16] = assay: Antibacterial activity against Escherichia coli by two-fold serial dilution assay
Klebsiella pneumoniae [17] = assay: Antibacterial activity against Klebsiella pneumoniae at MIC after 48 hrs by disc diffusion assay
[18] = tested on: Staphylococcus epidermidis; assay: Antibacterial activity against Staphylococcus epidermidis by two-fold serial dilution assay
Candida albicans [19] = assay: Antifungal activity against Candida albicans CN at MIC after 7 to 10 days by disc diffusion assay
Candida albicans [20] = assay: Antifungal activity against Candida albicans AI by two-fold serial dilution assay

Structure (SMILES) | Activity [1] | Activity (Klebsiella pneumoniae [2]) | Activity (Streptococcus mutans [3]) | Activity (Staphylococcus aureus [4]) | Activity (Enterococcus faecalis [5]) | Activity (Klebsiella aerogenes [6]) | Activity (Candida albicans [7]) | Activity (Escherichia coli [8]) | Activity (Candida albicans [9]) | Activity (Candida albicans [10]) | Activity (Staphylococcus aureus [11]) | Activity (Candida albicans [12]) | Activity (Enterococcus faecalis [13]) | Activity (Klebsiella aerogenes [14]) | Activity (Streptococcus mutans [15]) | Activity (Escherichia coli [16]) | Activity (Klebsiella pneumoniae [17]) | Activity [18] | Activity (Candida albicans [19]) | Activity (Candida albicans [20]) | further results
COc1cc(C)c(I)cc1C(C)C | inactive | inactive | inactive | inactive | inactive | inactive | inactive | inactive | inactive | inactive | inactive | inactive | inactive | inactive | inactive | inactive | inactive | inactive | inactive | inactive | –
Cc1c(Cl)cc(C(C)C)c(O)c1Br | inactive | inactive | inactive | inactive | inactive | inactive | inactive | inactive | inactive | inactive | inactive | inactive | inactive | inactive | inactive | inactive | inactive | inactive | inactive | inactive | –
Cc1ccc(C(C)C)c(O)c1 [THYMOL] | – | – | – | – | – | – | – | – | – | – | – | – | – | – | – | – | – | – | – | – | inhibition zone (IZ) [1]: 18 mm; MIC (Klebsiella pneumoniae [2]): 250 µg/mL (≈ 1660 µM); inhibition zone (IZ) (Streptococcus mutans [3]): 11 mm; inhibition zone (IZ) (Staphylococcus aureus [4]): 12 mm; MIC (Enterococcus faecalis [5]): 62.5 µg/mL (≈ 416 µM); MIC (Klebsiella aerogenes [6]): 125 µg/mL (≈ 832 µM); inhibition zone (IZ) (Candida albicans [7]): 8 mm; inhibition zone (IZ) (Escherichia coli [8]): 3 mm; MIC (Candida albicans [9]): 100 µg/mL (≈ 666 µM); inhibition zone (IZ) (Candida albicans [10]): 5 mm; MIC (Staphylococcus aureus [11]): 125 µg/mL (≈ 832 µM); MIC (Candida albicans [12]): 100 µg/mL (≈ 666 µM); inhibition zone (IZ) (Enterococcus faecalis [13]): 10 mm; inhibition zone (IZ) (Klebsiella aerogenes [14]): 8 mm; MIC (Streptococcus mutans [15]): 62.5 µg/mL (≈ 416 µM); MIC (Escherichia coli [16]): 100 µg/mL (≈ 666 µM); inhibition zone (IZ) (Klebsiella pneumoniae [17]): 6 mm; MIC [18]: 32.2 µg/mL (≈ 215 µM); inhibition zone (IZ) (Candida albicans [19]): 6 mm; MIC (Candida albicans [20]): 100 µg/mL (≈ 666 µM)
Cc1c(Br)cc(C(C)C)c(O)c1Br | – | – | – | – | – | – | inactive | – | inactive | inactive | – | inactive | – | – | – | – | – | – | inactive | inactive | inhibition zone (IZ) [1]: 16 mm; inhibition zone (IZ) (Staphylococcus aureus [4]): 13 mm; MIC (Staphylococcus aureus [11]): 250 µg/mL (≈ 812 µM); MIC [18]: 1000 µg/mL (≈ 3250 µM)
COc1cc(C)ccc1C(C)C | inactive | inactive | inactive | inactive | inactive | inactive | inactive | inactive | inactive | inactive | inactive | inactive | inactive | inactive | inactive | inactive | inactive | inactive | inactive | inactive | –
Cc1cc(O)c(C(C)C)cc1Cl [CHLOROTHYMOL] | – | – | – | – | – | – | – | – | – | – | – | – | – | – | – | – | – | – | – | – | inhibition zone (IZ) [1]: 6 mm; inhibition zone (IZ) (Staphylococcus aureus [4]): 5 mm; inhibition zone (IZ) (Candida albicans [7]): 20 mm; MIC (Candida albicans [9]): 100 µg/mL (≈ 542 µM); inhibition zone (IZ) (Candida albicans [10]): 30 mm; MIC (Staphylococcus aureus [11]): 12.5 µg/mL (≈ 67.7 µM); MIC (Candida albicans [12]): 100 µg/mL (≈ 542 µM); MIC [18]: 25 µg/mL (≈ 135 µM); inhibition zone (IZ) (Candida albicans [19]): 10 mm; MIC (Candida albicans [20]): 100 µg/mL (≈ 542 µM)
Cc1ccc(C(C)C)c(O)c1Br | – | – | – | – | – | – | inactive | – | inactive | inactive | – | inactive | – | – | – | – | – | – | inactive | inactive | inhibition zone (IZ) (Streptococcus mutans [3]): 3 mm; MIC (Klebsiella aerogenes [6]): 100 µg/mL (≈ 436 µM); inhibition zone (IZ) (Klebsiella aerogenes [14]): 2 mm; MIC (Streptococcus mutans [15]): 125 µg/mL (≈ 546 µM)
C[C@@H]1[C@H](O)[C@@H](C)/C=C/C=C/C=C/C=C/C=C/C=C/C=C/[C@H](O[C@@H]2O[C@H](C)[C@@H](O)[C@H](N)[C@@H]2O)C[C@@H]2O[C@](O)(C[C@@H](O)C[C@@H](O)[C@H](O)CC[C@@H](O)C[C@@H](O)CC(=O)O[C@H]1C)C[C@H](O)[C@H]2C(=O)O [AMPHOTERICIN B] | – | – | – | – | – | – | – | – | – | – | – | – | – | – | – | – | – | – | – | – | inhibition zone (IZ) (Candida albicans [7]): 20 mm; MIC (Candida albicans [9]): 100 µg/mL (≈ 108 µM); inhibition zone (IZ) (Candida albicans [10]): 30 mm; MIC (Candida albicans [12]): 100 µg/mL (≈ 108 µM); inhibition zone (IZ) (Candida albicans [19]): 10 mm; MIC (Candida albicans [20]): 100 µg/mL (≈ 108 µM)
Cc1c(Cl)cc(C(C)C)c(O)c1Cl | inactive | inactive | inactive | inactive | inactive | inactive | inactive | inactive | inactive | inactive | inactive | inactive | inactive | inactive | inactive | inactive | inactive | inactive | inactive | inactive | –
CN[C@@H]1[C@H](O[C@H]2[C@H](O[C@H]3[C@H](O)[C@@H](O)[C@H](N=C(N)N)[C@@H](O)[C@@H]3N=C(N)N)O[C@@H](C)[C@]2(O)C=O)O[C@@H](CO)[C@H](O)[C@H]1O [STREPTOMYCIN] | – | – | – | – | – | – | – | – | – | – | – | – | – | – | – | – | – | – | – | – | inhibition zone (IZ) [1]: 9 mm; MIC (Klebsiella pneumoniae [2]): 2.71 µg/mL (≈ 4.66 µM); inhibition zone (IZ) (Streptococcus mutans [3]): 13 mm; inhibition zone (IZ) (Staphylococcus aureus [4]): 9 mm; MIC (Enterococcus faecalis [5]): 0.36 µg/mL (≈ 0.619 µM); MIC (Klebsiella aerogenes [6]): 2.71 µg/mL (≈ 4.66 µM); inhibition zone (IZ) (Escherichia coli [8]): 9 mm; MIC (Staphylococcus aureus [11]): 12.5 µg/mL (≈ 21.5 µM); inhibition zone (IZ) (Enterococcus faecalis [13]): 10 mm; inhibition zone (IZ) (Klebsiella aerogenes [14]): 10 mm; MIC (Streptococcus mutans [15]): 6.35 µg/mL (≈ 10.9 µM); MIC (Escherichia coli [16]): 1.35 µg/mL (≈ 2.32 µM); inhibition zone (IZ) (Klebsiella pneumoniae [17]): 9 mm; MIC [18]: 6.35 µg/mL (≈ 10.9 µM)
COc1c(C(C)C)ccc(C)c1Br | inactive | inactive | inactive | inactive | inactive | inactive | inactive | inactive | inactive | inactive | inactive | inactive | inactive | inactive | inactive | inactive | inactive | inactive | inactive | inactive | –
